# Assay results published in patent US11234982B2, “Methods for treating ocular surface pain” (NOVARTIS AG, priority 2019, dated 2022).
# Tests used:
# [1] = tested on: healthy volunteers; assay: First in human study Part 1: SAD, incidence of adverse events; type: in vivo; settings: N = 6
# Description: This example describes a first-in-human study of compound I conducted in healthy volunteers. A total of 54 subjects were administered to study medication. Part 1 of the first in human study administered single ascending doses of 0.15%, 1.5%, 2.5% w/v (1 drop) of compound I in an eye drop.
# (§1) Safety assessments: Safety assessments consisted of collecting all adverse events (AEs), serious adverse events (SAEs), including systemic and ocular adverse events, along with their severity and relationship to study drug. Systemic safety assessments included regular monitoring of hematology, blood chemistry and urinalysis performed at study center and regular assessments of physical examination, vital signs (systolic and diastolic blood pressure, pulse rate, and body temperature), ECG, pregnancy and assessments of fertility and hand immersion test at 49° C. during MAD part. Ocular safety assessments included early treatment diabetic retinopathy study (ETDRS) visual acuity, intraocular pressure, slit-lamp biomicroscopy, corneal staining and dilated fundus exam.
# (§2) Inclusion Criteria: • Written informed consent was obtained before any assessment was performed. • Healthy male and female subjects aged 18 to 50 years (inclusive), and in good health as determined by past medical history, physical examination, vital signs, ECG, and laboratory tests at Screening. • At Screening, and Baseline, vital signs (systolic and diastolic blood pressure (BP) and pulse rate) were assessed in the sitting position after the subject had rested for at least 3 minutes and again after 3 minutes in the standing position. […] BMI=Body weight (kg)/[Height (m)]^2 • Subjects who were able to communicate well with the Investigator, to understand and comply with the requirements of the study. • For Part 3, subjects Baseline levels of eye sensitivity were to be in the range of 50 to 60 mm (inclusive) as measured by the Cochet-Bonnet esthesiometer.
# History of any chronic eye disease other than refractive error, incipient cataract, strabismic amblyopia, or anisometropic amblyopia. Subjects with a history of acute eye disease (such as infection, corneal abrasion or allergy) within the past 6 months from Screening were eligible if the disease was not active. • Any currently active ocular condition that required use of topical eye drops. • Subjects using continuous positive airway pressure or other sleep apnea devices.
# [2] = tested on: healthy volunteers; assay: Hand immersion test at 49° C. during MAD part; type: in vivo, human; settings: water at 49° C.
# Description: as §1
# For the hand immersion test, all subjects in the treatment cohorts withdrew their hand from water at 49° C. at a time interval between 0 to ≤50 secs.
# [3] = tested on: cornea; assay: Esthesiometry assessment (Part 3): corneal sensitivity, anesthetic effect; type: in vivo, human; settings: for Anesthetic effect on the cornea (esthesiometry): single eye drop: tetracaine 0.5%, diclofenac 0.1%
# Excerpt: Part 3 was an esthesiometry assessment to evaluate the anesthetic properties of compound I. Part 3 of the study had four arms, with compound I, vehicle, tetracaine (0.5% ophthalmic solution, used as a positive control) and diclofenac sodium (0.1% ophthalmic solution, used as the active NSAID comparator). Ocular anesthetic was selected because of its established anesthetic effect; however it is not the standard of care due to its negative effect on wound healing. NSAID is the current standard of care for corneal pain after PRK with minimal anesthetic but significant pain control properties. Vehicle eye drops were used as a negative control to enable better determination of the potential anesthetic effect. Twelve healthy subjects, who met the eligibility criteria, were randomized to receive a single eye drop of 4 study treatments, each during 1 of 4 different study days (Days 1, 4, 7 and 10). Each subject was randomized to receive the study treatment according to one of the following four sequences: • Sequence 1: Anesthetic, NSAID, compound I 2.5%, Vehicle • Sequence 2: NSAID, Vehicle, Anesthetic, compound I 2.5% • Sequence 3: Vehicle, compound I 2.5%, NSAID, Anesthetic • Sequence 4: compound I 2.5%, Anesthetic, Vehicle, NSAID
# as §2
# The first-in-human study further evaluated potential anesthetic effect of topical ocular 2.5% compound I by esthesiometry testing, i.e. measurement of the filament length (cm) when the threshold of cornea touch is perceived.
# [4] = PRK study: residual compound I in bandage contact lens (BCL); type: in vivo, human
# Description: Compound I was quantified in plasma using a validated LC-MS/MS method; the lower limit of quantification (LLOQ) was 0.05 ng/mL. Concentrations were expressed in ng per mL units. When feasible, bandage contact lenses (BCL) exposed to study drug were collected and analyzed for residual drug exposure after treatment (LLOQ: 5.00 ng/mL in 0.55 mL of extraction fluid, or 2.75 ng/BCL). Concentrations below the LLOQ were reported as “zero” and missing data were labeled as such.
# Bandage Contact Lens (BCL) was collected from 40 patients on Day 4 of the dose administration and analyzed for compound I. Values from the three IMP non-compliant patients were excluded from BCL summary statistics, leaving 37 values evaluable, including one value from a patient without available plasma PK. The mean concentration of compound I (CV %) in 0.55 mL extraction fluid was 8500 ng/mL (73.1%), with a wide range of 284 to 22600 ng/mL. These concentrations translate to an estimated mean of 4680 ng/lens (0.55 mL×8500 ng/mL), and a range of 156 to 12400 ng/lens. The amount in BCL was very small in relation to the 0.925 mg dose of compound I administered: mean 0.51%, and range of 0.017% to 1.3% of dose.
structure (smiles),measurement,setting,value
"CC(C)c1nc2cc(O)ccc2c(=O)n1-c1ccc(C#N)cc1 [Compound I, 4-(7-hydroxy-2-isopropyl-4-oxo-4H-quinazolin-3-yl)-benzonitrile]",AEs leading to of study: nE,[1]; 0.15% 1 drop,0
same,AEs leading to of study: nS (%),[1]; 0.15% 1 drop,0 (0.0) nS (%)
same,AEs of Mild severity: nE,[1]; 0.15% 1 drop,3
same,AEs of Mild severity: nS (%),[1]; 0.15% 1 drop,1 (16.7) nS (%)
same,AEs of Moderate severity: nE,[1]; 0.15% 1 drop,0
same,AEs of Moderate severity: nS (%),[1]; 0.15% 1 drop,0 (0.0) nS (%)
same,"AEs, Subjects with AEs: nE (AE events)",[1]; 0.15% 1 drop,3
same,"AEs, Subjects with AEs: nS (%) (subjects with at least one AE)",[1]; 0.15% 1 drop,1 (16.7) nS (%)
same,Serious AEs: nE,[1]; 0.15% 1 drop,0
same,Serious AEs: nS (%),[1]; 0.15% 1 drop,0 (0.0) nS (%)
same,Study drug-related AEs: nE,[1]; 0.15% 1 drop,3
same,Study drug-related AEs: nS (%),[1]; 0.15% 1 drop,1 (16.7) nS (%)
same,Study-drug related AEs leading to discontinuation of study: nE,[1]; 0.15% 1 drop,0
same,Study-drug related AEs leading to discontinuation of study: nS (%),[1]; 0.15% 1 drop,0 (0.0) nS (%)
same,AEs leading to of study: nE,[1]; 1.5% 1 drop,0
same,AEs leading to of study: nS (%),[1]; 1.5% 1 drop,0 (0.0) nS (%)
same,AEs of Mild severity: nE,[1]; 1.5% 1 drop,3
same,AEs of Mild severity: nS (%),[1]; 1.5% 1 drop,2 (33.3) nS (%)
same,AEs of Moderate severity: nE,[1]; 1.5% 1 drop,0
same,AEs of Moderate severity: nS (%),[1]; 1.5% 1 drop,0 (0.0) nS (%)
same,"AEs, Subjects with AEs: nE (AE events)",[1]; 1.5% 1 drop,3
same,"AEs, Subjects with AEs: nS (%) (subjects with at least one AE)",[1]; 1.5% 1 drop,2 (33.3) nS (%)
same,Serious AEs: nE,[1]; 1.5% 1 drop,0
same,Serious AEs: nS (%),[1]; 1.5% 1 drop,0 (0.0) nS (%)
same,Study drug-related AEs: nE,[1]; 1.5% 1 drop,3
same,Study drug-related AEs: nS (%),[1]; 1.5% 1 drop,2 (33.3) nS (%)
same,Study-drug related AEs leading to discontinuation of study: nE,[1]; 1.5% 1 drop,0
same,Study-drug related AEs leading to discontinuation of study: nS (%),[1]; 1.5% 1 drop,0 (0.0) nS (%)
same,AEs leading to of study: nE,[1]; 2.5% 1 drop,0
same,AEs leading to of study: nS (%),[1]; 2.5% 1 drop,0 (0.0) nS (%)
same,AEs of Mild severity: nE,[1]; 2.5% 1 drop,0
same,AEs of Mild severity: nS (%),[1]; 2.5% 1 drop,0 (0.0) nS (%)
same,AEs of Moderate severity: nE,[1]; 2.5% 1 drop,0
same,AEs of Moderate severity: nS (%),[1]; 2.5% 1 drop,0 (0.0) nS (%)
same,"AEs, Subjects with AEs: nE (AE events)",[1]; 2.5% 1 drop,0
same,"AEs, Subjects with AEs: nS (%) (subjects with at least one AE)",[1]; 2.5% 1 drop,0 (0.0) nS (%)
same,Serious AEs: nE,[1]; 2.5% 1 drop,0
same,Serious AEs: nS (%),[1]; 2.5% 1 drop,0 (0.0) nS (%)
same,Study drug-related AEs: nE,[1]; 2.5% 1 drop,0
same,Study drug-related AEs: nS (%),[1]; 2.5% 1 drop,0 (0.0) nS (%)
same,Study-drug related AEs leading to discontinuation of study: nE,[1]; 2.5% 1 drop,0
same,Study-drug related AEs leading to discontinuation of study: nS (%),[1]; 2.5% 1 drop,0 (0.0) nS (%)
same,"Change in hand immersion time, compound I vs vehicle",[2]; MAD part,no meaningful change in immersion time
same,Temperature sensitivity of the subjects,[2]; MAD part,does not alter temperature sensitivity
same,Longest hand immersion time of any subject,[2]; all subjects in the treatment cohorts,≤ 22 s
same,"Corneal sensitivity, least squares means, Test vs Ref: vs Tetracaine 0.5%",[3]; Compound I 2.5% (N=11) vs Tetracaine 0.5% (N=12) at 2.5 and 10 minutes post-dose,statistical and clinical significance were observed
same,Difference in corneal sensitivity vs vehicle,"[3]; compound I 2.5%, time points up to 30 minutes post-dose",No difference
same,Anesthetic effect on the cornea (esthesiometry),[3]; compound I 2.5%,no anesthetic effect at any time point
same,Anesthetic effect on the cornea (esthesiometry),"[3]; compound I 2.5%, listed as compound I",lack of anesthetic effect
same,Range of concentration of compound I in BCL extraction fluid,"[4]; 0.55 mL extraction fluid, Day 4",284 to 22600 ng/mL
same,Mean concentration of compound I in BCL extraction fluid,"[4]; 0.55 mL extraction fluid, Day 4, 37 values",8.5 µg/mL
same,Estimated mean amount of compound I per lens,[4]; 0.55 mL×8500 ng/mL,4680 ng/lens
same,"Amount in BCL in relation to the 0.925 mg dose, mean",[4]; Day 4,0.51 % of dose
same,"Amount in BCL in relation to the 0.925 mg dose, range",[4]; Day 4,0.017 % of dose
same,Range of amount of compound I per lens,[4]; Day 4,156 to 12400 ng/lens
